Patent publication US10472346B2, “Potent gamma-secretase modulators” (The General Hospital Coporation, priority 2014, dated 2019)

Assays:
[1] = Plasma concentrations (pharmacokinetics) in male Sprague Dawley rats, iv and po; format: in vivo; conditions: rat
Procedure: FIG. 4. Time course of administration of Compound 1 to male Sprague Dawley rats: iv (1 mg/kg) or po (5 mg/kg). […] Clearance was 89 mL/hr/kg. T1/2 (iv) was 5.9 hrs.
Efficacy Studies in Rat. Plasma Concentrations of Compound 1 in Male Sprague Dawley Rats. FIG. 4 depicts the time course of administration of Compound 1 to male Sprague Dawley rats: iv (1 mg/kg) or [p (5 mg/kg). […] Clearance was 89 mL/hr/kg. T1/2 (iv) was 5.9 hrs.

Aβ42 levels [2] = assay: Effects of 9 days treatment on rat plasma and CSF Aβ42 levels; format: in vivo, male Sprague-Dawley rat; conditions: for reduction in CSF Aβ42 levels: rat CSF; for reduction in plasma Aβ42 levels: rat plasma
Procedure: FIG. 5: The effects of Compound 1 after 9-days treatment on Aβ42 levels in male Sprague-Dawley rat plasma A) where the reduction in plasma levels was 81%, 93% and 97%, for dosages of 5, 25, and 50 mg/kg, respectively and male Sprague-Dawley rat CSF B) where the reduction in CSF levels was 43%, 73% and 86%, for dosages of 5, 25, and 50 mg/kg, respectively.
Effects of Compound 1 (9 Days Treatment) on Rat Plasma and CSF Aβ42 Levels. The effects of Compound 1 after 9-days treatment on Aβ42 levels in rat plasma and CSF are depicted in FIG. 5A (plasma) and FIG. 5B (CSF). For FIG. 5A, the reduction in plasma levels was 81%, 93% and 97%, for dosages of 5, 25, and 50 mg/kg, respectively. For FIG. 5B, the reduction in CSF levels was 43%, 73% and 86%, for dosages of 5, 25, and 50 mg/kg, respectively.

Aβ40 levels [3] = assay: Effects of 9 days treatment on rat plasma and CSF Aβ40 levels; format: in vivo, male Sprague-Dawley rat; conditions: for reduction in CSF Aβ40 levels: rat CSF; for reduction in plasma Aβ40 levels: rat plasma
Procedure: FIG. 6: The effects of Compound 1 after 9-days treatment on Aβ40 levels in male Sprague-Dawley rat plasma A) where the reduction in plasma levels was 61%, 89% and 95%, for dosages of 5, 25, and 50 mg/kg, respectively and in male Sprague-Dawley rat CSF B) where the reduction in CSF levels was 47%, 75% and 85%, for dosages of 5, 25, and 50 mg/kg, respectively.
Effects of Compound 1 (9 Days Treatment) on Rat Plasma and CSF Aβ40 Levels. The effects of Compound 1 after 9-days treatment on Aβ40 levels in rat plasma and CSF are depicted in FIG. 6A (plasma) and FIG. 6B (CSF). For FIG. 6A, the reduction in plasma levels was 61%, 89% and 95%, for dosages of 5, 25, and 50 mg/kg, respectively. For FIG. 6B, the reduction in CSF levels was 47%, 75% and 85%, for dosages of 5, 25, and 50 mg/kg, respectively.

Aβ42 levels [4] = assay: Effects of 7 days treatment on mouse plasma and brain Aβ42 levels; format: in vivo, male C57BL/6J mouse; conditions: for percent reduction of Aβ42 levels in brain: mouse brain; for percent reduction of Aβ42 levels in plasma: mouse plasma
Procedure: FIG. 2: The effects of Compound 1 after 7-days treatment on Aβ42 levels in male C57BL/6J mouse plasma A) (plasma) where the percent reduction was 76%, 91% and 96% for dosages of 10, 25, and 50 mg/kg, respectively and in male C57BL/6J mouse brain B) where the percent reduction was 36%, 69% and 85% for dosages of 10, 25, and 50 mg/kg, respectively.
Effects of Compound 1 (7 Days Treatment) on Mouse Plasma and Brain Aβ42 Levels. The effects of Compound 1 after 7-days treatment on Aβ42 levels in mouse plasma and brain are depicted in FIG. 2A (plasma) and FIG. 2B (brain). For FIG. 2A, the percent reduction was 76%, 91% and 96% for dosages of 10, 25, and 50 mg/kg, respectively. For FIG. 2B, the percent reduction was 36%, 69% and 85% for dosages of 10, 25, and 50 mg/kg, respectively.

Notch processing = Notch processing in transfected H4-APP751 cells (Western blot, Myc antibody, NICD); format: cell-based, human; conditions: H4-APP751 cells transfected with the NAE construct, different concentrations, 24 hrs
Description: Cells were harvested 48 hrs post transfection and applied to Western blotting analysis. Myc antibody was utilized to assess the NAED and NICD tagged with Myc on their N-termini. β-Actin was utilized as the loading control.
Cells were harvested 48 hrs post transfection and subjected to Western blotting analysis. Myc antibody was utilized to assess the NδED and NICD tagged with Myc on their N-termini.
Stable H4 human neuroglioma cells over-expressing human APP751, or H4-APP751 cells, were transfected with the NAE construct, and then treated with different concentrations SGSM Compound 1 (Lanes 1-6) or DAPT (Lanes 7-10) for another 24 hrs and are shown in FIG. 9. Cells were harvested 48 hrs post transfection and applied to Western blotting analysis. Myc antibody was utilized to assess the NAED and NICD tagged with Myc on their N-termini β-Actin was utilized as the loading control.
Stably-transfected H4 human neuroglioma cells over-expressing human APP751 (H4-APP751) cells, were transfected with the Notch NδED construct, and then treated with vehicle, or different doses of GSMs (40 nM, 200 nM, 1000 nM, and 5000 nM) for 24 hrs. Cells were harvested 48 hrs post transfection and subjected to Western blotting analysis.

Aβ40 levels [5] = assay: Effects of 7 days treatment on mouse plasma and brain Aβ40 levels; format: in vivo, male C57BL/6J mouse; conditions: for percent reduction of Aβ40 levels in brain: mouse brain; for percent reduction of Aβ40 levels in plasma: mouse plasma
Procedure: FIG. 3: The effects of Compound 1 after 7-days treatment on Aβ40 levels in male C57BL/6J mouse plasma A) (plasma) where the percent reduction was 62%, 81% and 91% for dosages of 10, 25, and 50 mg/kg, respectively and male C57BL/6J mouse brain B) where the percent reduction was 46%, 69% and 82% for dosages of 10, 25, and 50 mg/kg, respectively.
Effects of Compound 1 (7 Days Treatment) on Mouse Plasma and Brain Aβ40 Levels. The effects of Compound 1 after 7-days treatment on Aβ40 levels in mouse plasma and brain are depicted in FIG. 3A (plasma) and FIG. 3B (brain). For FIG. 3A, the percent reduction was 62%, 81% and 91% for dosages of 10, 25, and 50 mg/kg, respectively. For FIG. 3B, the percent reduction was 46%, 69% and 82% for dosages of 10, 25, and 50 mg/kg, respectively.

COc1nc(-c2cc(C)c(N[C@@H](C)c3ccc(F)cc3)nn2)ccc1-n1cnc(C)c1 [Compound 1, (S)—N-(1-(4-fluorophenyl)ethyl)-6-(6-methoxy-5-(4-methyl-1H-imidazol-1-yl)pyridin-2-yl)-4-methylpyridazin-3-amine]
bioavailability ([1]; iv (1 mg/kg) or po (5 mg/kg)): 60.3% | clearance ([1]; iv (1 mg/kg) or po (5 mg/kg)): 1.48 mL/min/kg | half-life ([1]; iv (1 mg/kg), read-out: T1/2 (iv) (converted)): 5.9 h | reduction in CSF Aβ42 levels (Aβ42 levels [2]; 5 mg/kg): 43% | reduction in CSF Aβ42 levels (Aβ42 levels [2]; 25 mg/kg): 73% | reduction in CSF Aβ42 levels (Aβ42 levels [2]; 50 mg/kg): 86% | reduction in plasma Aβ42 levels (Aβ42 levels [2]; 5 mg/kg): 81% | reduction in plasma Aβ42 levels (Aβ42 levels [2]; 25 mg/kg): 93% | reduction in plasma Aβ42 levels (Aβ42 levels [2]; 50 mg/kg): 97% | reduction in CSF Aβ40 levels (Aβ40 levels [3]; 5 mg/kg): 47% | reduction in CSF Aβ40 levels (Aβ40 levels [3]; 25 mg/kg): 75% | reduction in CSF Aβ40 levels (Aβ40 levels [3]; 50 mg/kg): 85% | reduction in plasma Aβ40 levels (Aβ40 levels [3]; 5 mg/kg): 61% | reduction in plasma Aβ40 levels (Aβ40 levels [3]; 25 mg/kg): 89% | reduction in plasma Aβ40 levels (Aβ40 levels [3]; 50 mg/kg): 95% | percent reduction of Aβ42 levels in brain (Aβ42 levels [4]; 10 mg/kg): 36% | percent reduction of Aβ42 levels in brain (Aβ42 levels [4]; 25 mg/kg): 69% | percent reduction of Aβ42 levels in brain (Aβ42 levels [4]; 50 mg/kg): 85% | percent reduction of Aβ42 levels in plasma (Aβ42 levels [4]; 10 mg/kg): 76% | percent reduction of Aβ42 levels in plasma (Aβ42 levels [4]; 25 mg/kg): 91% | percent reduction of Aβ42 levels in plasma (Aβ42 levels [4]; 50 mg/kg): 96% | Notch processing (NICD, Western blot) (Notch processing): did not inhibit Notch processing | percent reduction of Aβ40 levels in brain (Aβ40 levels [5]; 10 mg/kg): 46% | percent reduction of Aβ40 levels in brain (Aβ40 levels [5]; 25 mg/kg): 69% | percent reduction of Aβ40 levels in brain (Aβ40 levels [5]; 50 mg/kg): 82% | percent reduction of Aβ40 levels in plasma (Aβ40 levels [5]; 10 mg/kg): 62% | percent reduction of Aβ40 levels in plasma (Aβ40 levels [5]; 25 mg/kg): 81% | percent reduction of Aβ40 levels in plasma (Aβ40 levels [5]; 50 mg/kg): 91%
